Measurements as given in PMC6383986, “Fragment-Based Covalent Ligand Screening Enables Rapid Discovery of Inhibitors for the RBR E3 Ubiquitin Ligase HOIP” (Journal of the American Chemical Society, 2019).

Target: T1, HOIP RBR R1032A mutant (Homo sapiens, UniProt Q96EP0, R1032A)
T1 construct: 697-1072; made in house; host or cells: E. coli BL21-GOLD(DE3)
Experiment: Protein LC-MS library screen, covalent labeling
Type: binding
Details: 20 μM compound, 2 μM protein, 24 h incubation
Method: 3.1 Experimental procedures
Acquisition of mass spectrometry data was carried out using positive electrospray ionisation (ESI) on an Agilent 6224 TOF LC-MS system equipped with a Diode Array Detector (DAD), a Wellplate sampler (held at 10 °C) and an Agilent PLRP-S reverse phase column (50 mm, 1 mm diameter, 5 µm particle size) held at 70 °C. The following mobile phases were used for the LC: Mobile phase A (MP A) = 0.2% Formic acid in water, v/v; Mobile phase B (MP B) = 0.2% Formic acid in MeCN, v/v. The following LC method was employed: 0-0.5 min (10→30% B in A, v/v), 0.5-5 min (30→55% […]
mL/min. Injection volume: 10 µL. The run length was 8 min, and equilibration time 1 min after each sample. […] Between 0.5 and 6 min the TOF mass spectrometer recorded 1 spectrum per second with a scan range between 700 and 2200 AMU. […]
thawed individually and analyzed by protein mass spectrometry as described above. The total ion counts (TICs) detected for unlabelled HOIP and labelled HOIP-(5) conjugate within a peak elution range of 10 seconds were used to calculate the ratio of labelled HOIP RBR over total HOIP RBR content for each sample. The averaged data from 3 independent experiments were analyzed according to a two-step model of reversible ligand binding followed by irreversible covalent […]

T1 sequence (Q96EP0 697-1072 R1032A): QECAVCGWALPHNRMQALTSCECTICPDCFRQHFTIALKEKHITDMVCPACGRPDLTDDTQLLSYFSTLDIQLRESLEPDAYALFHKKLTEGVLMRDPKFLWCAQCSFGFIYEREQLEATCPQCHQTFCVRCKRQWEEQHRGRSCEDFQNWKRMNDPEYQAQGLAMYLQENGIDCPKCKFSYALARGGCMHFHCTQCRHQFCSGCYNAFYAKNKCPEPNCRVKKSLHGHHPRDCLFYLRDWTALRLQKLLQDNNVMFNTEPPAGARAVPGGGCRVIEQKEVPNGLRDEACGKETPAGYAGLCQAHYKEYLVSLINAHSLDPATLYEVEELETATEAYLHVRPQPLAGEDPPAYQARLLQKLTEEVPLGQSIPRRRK

labeling of HOIP RBR R1032A: > 85%
SMILES: COC(=O)/C=C/CNC(=O)c1cc2c([nH]c1=O)CCC2 [Compound 5]
